Results reported in US20210254272A1, “TEXTILES HAVING ANTIMICROBIAL PROPERTIES” (Livinguard AG, priority 2015, published 2021).

Assay: Leaching test: 100 g fabric soaked in 10 liters stagnant distilled water, 3 days (72 hours)
Format: physicochemical
Conditions: for Leaching of active ingredients / Leaching Test-Leaching of active ingredients: pad process; for Leaching of active ingredients: cured 180° C. 2 min; for Leaching Test-Leaching of active ingredients: 2 min
Procedure: The test procedure for leaching was as follows: 100 g (grams) of fabric as well as control fabrics were soaked in 10 liters of stagnant distilled water in a closed wide mouth jar. After 3 days (72 hours), the water samples were tested for leached substances as per standard analytical methods.
The test procedure for leaching was as follows: 100 g (grams) of fabric as well as control fabrics were soaked in 10 liters of stagnant distilled water in a closed wide mouth jar. After 3 days (72 hours), the water samples were tested for leached substances as per standard analytical methods. A weight of 100 g fabric was chosen because in the preferred embodiment of the water filter as described further below, each filter comprises a strip of fabric with 210 g/m^2, 3 meters long and 0.16 meters wide, which corresponds to 100 g of fabric.

SMILES: CCCC1COC(Cn2cncn2)(c2ccc(Cl)cc2Cl)O1 (centres unmarked) [Propiconazole, propiconazole]
- Leaching of active ingredients (in ppm) (exhaust 80° C., 60 min, dosage 1% o.w.f (test up to 5% o.w.f)): 3 ppm
- Leaching of active ingredients (in ppm) (exhaust 80° C., 60 min, dosage 2% o.w.f): 26 ppm
- Leaching of active ingredients (in ppm) (exhaust 80° C., 60 min, dosage 3% o.w.f): 40 ppm
- Leaching of active ingredients (in ppm) (exhaust 80° C., 60 min, dosage 4% o.w.f): 47 ppm
- Leaching of active ingredients (in ppm) (exhaust 80° C., 60 min, dosage 5% o.w.f): 73 ppm
- Leaching of active ingredients (in ppm) (exhaust 80 ° C., solution dosage 1% o.w.f, process time 10 min): 38 ppm
- Leaching of active ingredients (in ppm) (exhaust 80 ° C., solution dosage 1% o.w.f, process time 20 min): 26 ppm
- Leaching of active ingredients (in ppm) (exhaust 80 ° C., solution dosage 1% o.w.f, process time 30 min): 22 ppm
- Leaching of active ingredients (in ppm) (exhaust 80 ° C., solution dosage 1% o.w.f, process time 40 min): 15 ppm
- Leaching of active ingredients (in ppm) (exhaust 80 ° C., solution dosage 1% o.w.f, process time 50 min): 14 ppm
- Leaching of active ingredients (in ppm) (exhaust 80 ° C., solution dosage 1% o.w.f, process time 55 min): 7 ppm
- Leaching of active ingredients (in ppm) (exhaust 80 ° C., solution dosage 1% o.w.f, process time 60 min): 3 ppm
- Leaching of active ingredients (in ppm) (exhaust 80 ° C., solution dosage 1% o.w.f, process time 70 min): 3 ppm
- Leaching of active ingredients (in ppm) (exhaust 80 ° C., solution dosage 1% o.w.f, process time 80 min): 4 ppm
- Leaching of active ingredients (in ppm) (exhaust 80 ° C., solution dosage 1% o.w.f, process time 90 min): 7 ppm
- limit on the quantity of the agent that can be adhered to the textile in a non-leaching or substantially non-leaching manner (from Experimental examples I.1 and I.4): about 0.25 % o.w.f.
- Leaching of active ingredients (mixture 1 gm/lit each): 9 ppm
- Leaching of active ingredients (mixture 1 gm/lit each, after Washing): 0.4 ppm
- Leaching of active ingredients (mixture 5 gm/lit each): 13 ppm
- Leaching of active ingredients (mixture 5 gm/lit each, after Washing): 0.7 ppm
- Leaching of active ingredients (mixture 10 gm/lit each): 24 ppm
- Leaching of active ingredients (mixture 10 gm/lit each, after Washing): 0.9 ppm
- Leaching Test-Leaching of active ingredients (single agent 5 gm/lit, curing 120° C.): 9 ppm
- Leaching Test-Leaching of active ingredients (single agent 5 gm/lit, curing 140° C.): 7 ppm
- Leaching Test-Leaching of active ingredients (single agent 5 gm/lit, curing 150° C.): 5 ppm
- Leaching Test-Leaching of active ingredients (single agent 5 gm/lit, curing 160° C.): 4 ppm
- Leaching Test-Leaching of active ingredients (single agent 5 gm/lit, curing 180° C.): 1 ppm
- Leaching Test-Leaching of active ingredients (single agent 10 gm/lit, curing 120° C.): 15 ppm
- Leaching Test-Leaching of active ingredients (single agent 10 gm/lit, curing 140° C.): 14 ppm
- Leaching Test-Leaching of active ingredients (single agent 10 gm/lit, curing 150° C.): 13 ppm
- Leaching Test-Leaching of active ingredients (single agent 10 gm/lit, curing 160° C.): 8 ppm
- Leaching Test-Leaching of active ingredients (single agent 10 gm/lit, curing 180° C.): 2 ppm
- Leaching of active ingredient (in ppm) (solution dosage 0.10% o.w.f, exhaust temperature 40° C., process time 60 min): 0 ppm
- Leaching of active ingredient (in ppm) (solution dosage 0.10% o.w.f, exhaust temperature 60° C., process time 60 min): 0 ppm
- Leaching of active ingredient (in ppm) (solution dosage 0.10% o.w.f, exhaust temperature 65° C., process time 60 min): 0 ppm
- Leaching of active ingredient (in ppm) (solution dosage 0.10% o.w.f, exhaust temperature 70° C., process time 60 min): 0 ppm
- Leaching of active ingredient (in ppm) (solution dosage 0.10% o.w.f, exhaust temperature 75° C., process time 60 min): 0 ppm
- Leaching of active ingredient (in ppm) (solution dosage 0.10% o.w.f, exhaust temperature 80° C., process time 60 min): 0 ppm
- Leaching of active ingredient (in ppm) (solution dosage 0.10% o.w.f, exhaust temperature 85° C., process time 60 min): 1 ppm
- Leaching of active ingredient (in ppm) (solution dosage 0.10% o.w.f, exhaust temperature 90° C., process time 60 min): 2 ppm
- Leaching of active ingredient (in ppm) (solution dosage 0.10% o.w.f, exhaust temperature 95° C., process time 60 min): 3 ppm
- Leaching of active ingredient (in ppm) (solution dosage 0.20% o.w.f, exhaust temperature 40° C., process time 60 min): 0 ppm
- Leaching of active ingredient (in ppm) (solution dosage 0.20% o.w.f, exhaust temperature 60° C., process time 60 min): 0 ppm
- Leaching of active ingredient (in ppm) (solution dosage 0.20% o.w.f, exhaust temperature 65° C., process time 60 min): 0 ppm
- Leaching of active ingredient (in ppm) (solution dosage 0.20% o.w.f, exhaust temperature 70° C., process time 60 min): 0 ppm
- Leaching of active ingredient (in ppm) (solution dosage 0.20% o.w.f, exhaust temperature 75° C., process time 60 min): 0 ppm
- Leaching of active ingredient (in ppm) (solution dosage 0.20% o.w.f, exhaust temperature 80° C., process time 60 min): 0 ppm
- Leaching of active ingredient (in ppm) (solution dosage 0.20% o.w.f, exhaust temperature 85° C., process time 60 min): 2 ppm
- Leaching of active ingredient (in ppm) (solution dosage 0.20% o.w.f, exhaust temperature 90° C., process time 60 min): 4 ppm
- Leaching of active ingredient (in ppm) (solution dosage 0.20% o.w.f, exhaust temperature 95° C., process time 60 min): 4 ppm
- Leaching of active ingredient (in ppm) (solution dosage 0.50% o.w.f, exhaust temperature 40° C., process time 60 min): 0 ppm
- Leaching of active ingredient (in ppm) (solution dosage 0.50% o.w.f, exhaust temperature 60° C., process time 60 min): 1 ppm
- Leaching of active ingredient (in ppm) (solution dosage 0.50% o.w.f, exhaust temperature 65° C., process time 60 min): 1 ppm
- Leaching of active ingredient (in ppm) (solution dosage 0.50% o.w.f, exhaust temperature 70° C., process time 60 min): 1 ppm
- Leaching of active ingredient (in ppm) (solution dosage 0.50% o.w.f, exhaust temperature 75° C., process time 60 min): 1 ppm
- Leaching of active ingredient (in ppm) (solution dosage 0.50% o.w.f, exhaust temperature 80° C., process time 60 min): 1 ppm
- Leaching of active ingredient (in ppm) (solution dosage 0.50% o.w.f, exhaust temperature 85° C., process time 60 min): 3 ppm
- Leaching of active ingredient (in ppm) (solution dosage 0.50% o.w.f, exhaust temperature 90° C., process time 60 min): 5 ppm
- Leaching of active ingredient (in ppm) (solution dosage 0.50% o.w.f, exhaust temperature 95° C., process time 60 min): 6 ppm
- Leaching of active ingredient (in ppm) (solution dosage 0.80% o.w.f, exhaust temperature 40° C., process time 60 min): 0 ppm
- Leaching of active ingredient (in ppm) (solution dosage 0.80% o.w.f, exhaust temperature 60° C., process time 60 min): 2 ppm
- Leaching of active ingredient (in ppm) (solution dosage 0.80% o.w.f, exhaust temperature 65° C., process time 60 min): 1 ppm
- Leaching of active ingredient (in ppm) (solution dosage 0.80% o.w.f, exhaust temperature 70° C., process time 60 min): 2 ppm
- Leaching of active ingredient (in ppm) (solution dosage 0.80% o.w.f, exhaust temperature 75° C., process time 60 min): 2 ppm
- Leaching of active ingredient (in ppm) (solution dosage 0.80% o.w.f, exhaust temperature 80° C., process time 60 min): 1 ppm
- Leaching of active ingredient (in ppm) (solution dosage 0.80% o.w.f, exhaust temperature 85° C., process time 60 min): 4 ppm
- Leaching of active ingredient (in ppm) (solution dosage 0.80% o.w.f, exhaust temperature 90° C., process time 60 min): 6 ppm
- Leaching of active ingredient (in ppm) (solution dosage 0.80% o.w.f, exhaust temperature 95° C., process time 60 min): 7 ppm
- Leaching of active ingredient (in ppm) (solution dosage 1.00% o.w.f, exhaust temperature 40° C., process time 60 min): 0 ppm
- Leaching of active ingredient (in ppm) (solution dosage 1.00% o.w.f, exhaust temperature 60° C., process time 60 min): 8 ppm
- Leaching of active ingredient (in ppm) (solution dosage 1.00% o.w.f, exhaust temperature 65° C., process time 60 min): 7 ppm
- Leaching of active ingredient (in ppm) (solution dosage 1.00% o.w.f, exhaust temperature 70° C., process time 60 min): 4 ppm
- Leaching of active ingredient (in ppm) (solution dosage 1.00% o.w.f, exhaust temperature 75° C., process time 60 min): 3 ppm
- Leaching of active ingredient (in ppm) (solution dosage 1.00% o.w.f, exhaust temperature 80° C., process time 60 min): 1.5 ppm
- Leaching of active ingredient (in ppm) (solution dosage 1.00% o.w.f, exhaust temperature 85° C., process time 60 min): 8 ppm
- Leaching of active ingredient (in ppm) (solution dosage 1.00% o.w.f, exhaust temperature 90° C., process time 60 min): 9 ppm
- Leaching of active ingredient (in ppm) (solution dosage 1.00% o.w.f, exhaust temperature 95° C., process time 60 min): 9 ppm
